The values below come from ChEMBL document CHEMBL1158872, “Four new bioactive polybrominated diphenyl ethers of the sponge Dysidea herbacea from West Sumatra, Indonesia” (J Nat Prod, 1997).

The structures appear in SMILES notation. In brackets after ≈: the same amount, converted by molar mass. Activity calls are given as the source filed them. The calls are words filed in the database; no cut-off is given here.

As a reminder, the LC50 is the concentration lethal to half of the exposed cells or organisms. High values mean lower toxicity, low ones greater toxicity.

A short description of data set [1]: Toxicity against Artemia salina. It counts as organism-based. Particulars: in vivo.
Another data set concerns Escherichia coli. Briefly: Antimicrobial activity against Escherichia coli. It counts as functional, organism-based.
Data set [2] deals with Cladosporium cucumerinum. In words: Antimicrobial activity against Cladosporium cucumerinum at 25 nmol after 2 days by TLC based bioautography method. It counts as functional.
For data set [3], the system named is Cladosporium cucumerinum. Briefly: Antimicrobial activity against Cladosporium cucumerinum at 50 nmol after 2 days by TLC based bioautography method. It counts as functional.

Turning to `COc1c(Br)cc(Br)c(Br)c1Oc1ccccc1Br`, the LC50 in data set [1] was determined as 26.2 µg/mL (≈ 50.9 µM). Also, the result in the data set on Escherichia coli was inactive.

For the molecule `Oc1c(Br)c(Br)c(Br)c(Br)c1Oc1ccc(Br)cc1Br`, the LC50 in data set [1] is 0.94 µg/mL (≈ 1.43 µM). The “inhibition zone (IZ)” value in the data set on Cladosporium cucumerinum [2] stood at 5 mm; in the data set on Cladosporium cucumerinum [3], 8 mm. Further, the outcome in the data set on Escherichia coli was inactive.

Molecule `Oc1cc(Br)c(Br)c(Br)c1Oc1ccccc1Br` came in with an LC50 in data set [1] of 3.3 µg/mL (≈ 6.58 µM). The “inhibition zone (IZ)” value in the data set on Cladosporium cucumerinum [2] amounted to 8 mm; with Cladosporium cucumerinum [3], 13 mm. For the same molecule, the result in the data set with Escherichia coli was inactive.

For `Oc1c(Br)c(Br)c(Br)c(Br)c1Oc1ccccc1Br`, the LC50 in data set [1] was 0.96 µg/mL (≈ 1.65 µM). The figures for the “inhibition zone (IZ)” value in the data set with Cladosporium cucumerinum [2] and with Cladosporium cucumerinum [3] were 7 mm and 14 mm, respectively. Also, the result in the data set with Escherichia coli was inactive.

Molecule `Oc1c(Br)cc(Br)cc1Oc1ccc(Br)cc1Br` came in with an LC50 in data set [1] of 8.66 µg/mL (≈ 17.3 µM). In addition, the “inhibition zone (IZ)” value in the data set on Cladosporium cucumerinum [2] is 1.5 mm; in the data set with Cladosporium cucumerinum [3], 3.5 mm. For the same molecule, in the data set on Escherichia coli, the outcome was inactive.
